# Patent publication US20100105746A1, “METHOD FOR TREATING METABOLIC DISEASES” (priority 2008, published 2010)
# Values joined by “and” are separate entries in the source; they are usually repeats but may differ in a detail not shown here. Equal values may be shown once.
# Tests used:
# [1] = Terminal fasting serum glucose and lipids in rats with diet-induced obesity (Example 6); assay type: in vivo, rat; settings: DIO rats, vs vehicle control
# Protocol: As part of the study described in Example 4, a terminal blood sample (0.5 ml whole blood in EDTA) was collected on day 24, after a 12-18 hour fast. Whole blood was processed to serum, and analyzed for glucose, total cholesterol, HDL cholesterol, free fatty acids and total triglycerides.
# [2] = Body weight, food consumption and liver weight in diet-induced obese (DIO) rat model (Example 4); assay type: in vivo
# Protocol: Male Sprague-Dawley rats were acclimated for 7 weeks on a high-fat diet before commencement of dose administration, and maintained on the same diet throughout the subsequent dosing period of 23 days. The high-fat diet (D12492 commercially available from Research Diets, Inc., New Brunswick, N.J.) was one in which at least 60% of calories are derived from fat.
# Dose levels of gemfibrozil (50 mg/kg) and sibutramine (10 mg/kg) were selected based on published reports. All treatments were administered once daily by oral gavage in 10 ml vehicle. A vehicle-only control was also administered. Each treatment group consisted of 10 animals.
# Body weight of each animal was measured weekly during the 7-week acclimation period and five times weekly during the 23-day dosing period. Food consumption was recorded twice weekly during the 7-week acclimation period and five times weekly during the 23-day dosing period.
# Animals were sacrificed and liver weights measured at conclusion of the study.
# [3] = Plasma lipids, lipoproteins and liver weight in normal rats versus fibrates (Example 8); assay type: in vivo, rat; settings: once daily p.o. 7 days, approximation
# Description: The study design was based on the protocols used in Examples 1-3. Male Sprague-Dawley rats were provided normal chow ad libitum, both before and during the study period. […] Six rats were assigned to each treatment group (8 to the vehicle control). The study terminated on the day following administration of the seventh dose (day 8), with terminal blood collected for plasma lipid and lipoprotein analyses including LC-MS-based determination of lipid profiles, total and free cholesterol analyses, and lipoprotein cholesterol determinations (VLDL, LDL and HDL).
# In order to elucidate the impact of romazarit on plasma lipoproteins, an ultraviolet (UV) size exclusion chromatography (SEC) system was used to separate plasma into broad lipoprotein-containing fractions that were based on relative retention times of human VLDL (very low density lipoprotein), LDL (low density lipoprotein), and HDL (high density lipoprotein) standards. These fractions were collected for cholesterol assays and the UV chromatograms were integrated to provide relative quantitation of the three lipoprotein types. It is important to note that since the UV absorbance measurement is not specific for lipoproteins and may also derive from other plasma constituents that co-elute with a particular lipoprotein, the relative quantitation data reported here is an approximation. The HDL fraction in particular may have included such co-eluting species, as evidenced by the relatively high integrated area values for this fraction.
# [4] = Oral glucose tolerance test (OGTT) in rats with diet-induced obesity (Example 5); assay type: in vivo, rat; settings: for Glucose concentration excursion (baseline to maximum) / Glucose concentration maximum: OGTT day 21, DIO rats; for Time to maximum (glucose concentration): OGTT day 21, dextrose 2 g/kg
# Protocol: As part of the study described in Example 4, an oral glucose tolerance test (OGTT) was performed on day 21 of the dosing period, after a 2-4 hour fast. Dextrose (2 g/kg) was administered by oral gavage. Blood for glucose analysis was collected at 0, 15, 30, 60, 120 and 180 minutes after dextrose administration. At each time point, 0.25 ml whole blood was collected in EDTA, processed to plasma, and analyzed for blood glucose with a low-volume glucose kit.
# [5] = DIO rats, 10 mg/kg once daily p.o.
smiles,measurement,setting,value
Cc1ccc(C)c(OCCCC(C)(C)C(=O)O)c1 [gemfibrozil],terminal (total) cholesterol levels,"[1]; day 24, 50 mg/kg once daily",significantly increased
same,terminal HDL levels,"[1]; day 24, 50 mg/kg once daily",significantly increased
same,terminal fasting levels of triglycerides,"[1]; day 24, 50 mg/kg once daily",significant reduction
same,terminal fasting serum glucose,"[1]; day 24, 50 mg/kg once daily",did not result in a significant decrease
same,terminal levels of free fatty acids,"[1]; day 24, 50 mg/kg once daily",significant increase
same,food consumption,"[2]; DIO rats, 50 mg/kg once daily p.o., dosing period",No significant effect
same,body weight,"[2]; DIO rats, 50 mg/kg once daily p.o., throughout the dosing period",no significant effect
same,liver weight,"[2]; rat, in vivo, po, 50 mg/kg",Increased liver weight
same,"VLDL (UV size exclusion chromatography, relative quantitation)",[3],similarly significant effect
same,Glucose concentration excursion (baseline to maximum),[4]; 50 mg/kg,110.0 mg/dL and 111.0 mg/dL
same,Glucose concentration maximum,[4]; 50 mg/kg,264.9 mg/dL
same,Time to maximum (glucose concentration),"[4]; DIO rats, 50 mg/kg",30 min
CC(C)CC(N(C)C)C1(c2ccc(Cl)cc2)CCC1 (stereo not shown) [sibutramine],terminal (total) cholesterol levels,"[1]; day 24, 10 mg/kg once daily",no effect
same,terminal HDL levels,"[1]; day 24, 10 mg/kg once daily",no significant effect
same,terminal fasting levels of triglycerides,"[1]; day 24, 10 mg/kg once daily",significant reduction
same,terminal fasting serum glucose,"[1]; day 24, 10 mg/kg once daily",significant decrease
same,terminal levels of free fatty acids,"[1]; day 24, 10 mg/kg once daily",no effect
same,day by which food consumption returned to levels comparable to the vehicle control,[2]; [5],≤ 8 days
same,time of minimum food consumption,[2]; [5],≤ 2 days
same,body weight,"[2]; DIO rats, 10 mg/kg once daily p.o., 23 days",significant weight loss
same,liver weight,"[2]; DIO rats, 10 mg/kg once daily p.o., conclusion of the study",No increase in liver weight
same,Glucose concentration baseline,"[4]; OGTT day 21, 0 minutes, DIO rats, 10 mg/kg",126.9 mg/dL
same,Glucose concentration excursion (baseline to maximum),[4]; 10 mg/kg,74.4 mg/dL
same,Glucose concentration maximum,[4]; 10 mg/kg,201.3 mg/dL
same,Time to maximum (glucose concentration),"[4]; DIO rats, 10 mg/kg",30 min
